Where two headings read alike, the source gives them in different places.
Key:
[1] = in vivo; cited from earlier work
[2] = tested on: P. aeruginosa R22; type: cell-based, Pseudomonas aeruginosa; conditions: resazurin read-out
Description: (§1) The minimum inhibitory concentration (MIC) of colistin (as sulphate salt) and polymyxin B and their conjugates was determined using the broth microdilution method in MH broth in accordance with standard guidelines. Test organisms were suspended in MH broth (100 µL, 5 × 10^5 colony forming units (CFU)/mL) and incubated in 96-well microtitre plates in serial two-fold dilutions of the test compounds. […] Results were expressed as mode (n = 3). […] Selective activities of the polymyxins and OligoG–polymyxin conjugates were calculated as follows:Selectivity index (SI) = IC50 (μg/mL)/MIC (μg/mL).
(§2) To account for turbidity caused by mucin, resazurin dye solution (30 µL, 0.01% w/v in dH2O) was added to each well and incubated for a further 3 h at 37 °C. Colour changes were observed and recorded.

[3] = tested on: P. aeruginosa MDR 301; type: cell-based, Pseudomonas aeruginosa
Description: as §1
(§3) In addition, alginate oligomer–colistin conjugates (3 mg/mL) were incubated in PBS at pH 7 containing bacterial alginate lyase (1 and 10 U/mL) at 37 °C for 24 h, before preparing microtitre plates as described above.
(§4) To study the antimicrobial efficacy of test compounds under more clinically relevant conditions, the MIC protocol was performed using AS medium instead of MH broth. The plates were incubated with resazurin as described above.

[4] = tested on: P. aeruginosa NH57388A; assay: MIC, broth microdilution; type: cell-based, Pseudomonas aeruginosa
Description: as §1, §4

[5] = tested on: K. pneumoniae IR25; type: cell-based, Klebsiella pneumoniae; conditions: resazurin read-out
Description: as §1, §2

[6] = tested on: A. baumannii MDR ACB; type: cell-based, Acinetobacter baumannii; conditions: resazurin read-out
Description: as §1, §2

[7] = tested on: A. baumannii 7789; type: cell-based, Acinetobacter baumannii
Description: as §1, §3, §4

[8] = tested on: E. coli AIM-1; assay: MIC, broth microdilution; type: cell-based, Escherichia coli
Description: as §1, §3

[9] = tested on: E. coli IR57; type: cell-based, Escherichia coli
Description: as §1, §2, §4

[10] = tested on: E. coli 5702; assay: MIC, broth microdilution; type: cell-based, Escherichia coli
Description: as §1, §4

[11] = tested on: P. aeruginosa MDR 301; assay: Bacterial growth curves (48 h); type: cell-based, Pseudomonas aeruginosa; conditions: absorbance 600 nm hourly for 48 h, n = 3
Description: Results were expressed as mean values (n = 3).

[12] = tested on: P. aeruginosa R22; assay: Biofilm formation assay (CLSM, COMSTAT); type: cell-based, Pseudomonas aeruginosa; conditions: 24 h
Description: To analyse the effect of test compounds on biofilm formation, solutions of test compounds in MH broth were inoculated (1:10) with P. aeruginosa R22 (standardised to 10^7 CFU/mL) in a Greiner glass-bottomed optical 96-well plate. The plate was then wrapped in parafilm and incubated (37 °C, 20 rpm) for 24 h. The supernatant was carefully removed and replaced with 10% v/v LIVE/DEAD stain in PBS prior to imaging. CLSM of Syto 9 (λex/λem maximum, 480/500 nm) and propidium iodide (λex/λem maximum, 490/635 nm) was performed using a Leica SP5 confocal microscope with ×63 lens (under oil) and a step size of 0.79 µm. Z-stack CLSM images were analysed using COMSTAT image analysis software and results were expressed as mean ± SEM (n = 15).

[13] = Two-compartment static dialysis bag model, diffusion; type: physicochemical; conditions: IC 10 mg/mL colistin base in PBS (5 mL), OC PBS (15 mL), 37 °C, 70 rpm, BCA assay, n = 3
Description: A two-compartment static dialysis bag model (adapted from Azzopardi et al.) was used to study the PK–PD profile of OligoG–colistin conjugates. First, the ability of the dialysis membrane to control diffusion of test compounds was assessed. […] The aseptically sealed beaker was incubated (37 °C, 70 rpm) for 48 h. Samples were collected at various time points from each compartment and stored at −20 °C prior to analysis of colistin content by BCA assay.

[14] = tested on: A. baumannii 7789; assay: Time-to-kill (TTK) in PK–PD model; type: cell-based, Acinetobacter baumannii; conditions: 0.25 µg/mL colistin base (colistin sulphate at MIC; OligoG–E–colistin at 2 × MIC), n = 3
Description: A modified experimental set-up was used to investigate the concentration- and time-dependent antimicrobial activity of test compounds using a TTK assay (48 h). […] The OC contained MH broth inoculated with A. baumannii 7789 (5 × 10^5 CFU/mL). Samples were collected from the OC (0, 2, 4, 6, 24 and 48 h) and colony counts (CFU/mL) determined using drop counts. Treatments were considered bactericidal if the reduction in viable bacterial counts was ≥3 log10 CFU/mL (equivalent to 99.9% of the initial inoculum) and bacteriostatic if the decrease was <3 log10 CFU/mL [33, 34]. Growth (no test compounds) and sterility (no bacteria) controls were also performed.

[15] = cited from earlier work
Description: In a clinical setting, binding of colistin to sputum biomolecules (e.g., mucin) in the airways could negatively impact antibiotic effectiveness and availability. […] A four-fold increase in the MIC of colistin was also reported when the assay was conducted in AS medium instead of MH broth, thought to be caused by bacterial growth disruption, structural modifications of lipopolysaccharides or direct colistin–mucin interactions. Alt ...

[16] = MH broth + porcine stomach (type II) mucin 0.2% w/v
[17] = MH broth + porcine stomach (type II) mucin 2% w/v
[18] = AS (artificial sputum) medium, resazurin read-out
[19] = MH broth (Table S7 comparison with AS medium)
[20] = alginate lyase in MH broth, 0 U/mL
[21] = alginate lyase in MH broth, 1 U/mL
[22] = alginate lyase in MH broth, 10 U/mL
[23] = pre-incubation with alginate lyase 0 U/mL (3 mg/mL in PBS pH 7, 37 °C, 24 h), then MIC in MH broth
[24] = pre-incubation with alginate lyase 1 U/mL (3 mg/mL in PBS pH 7, 37 °C, 24 h), then MIC in MH broth
[25] = pre-incubation with alginate lyase 10 U/mL (3 mg/mL in PBS pH 7, 37 °C, 24 h), then MIC in MH broth

## colistimethate sodium
[1]
  plasma colistin concentration at steady-state: 0.5 to 4 µg/mL

## colistin sulphate
[2]; [16]
  MIC: 2 μg/mL Drug Base
[2]; [17]
  MIC: 16 μg/mL Drug Base
[2]; MH broth, mucin 0%
  MIC: 0.5 μg/mL Drug Base
[3]; [18]
  MIC: 2 μg/mL Drug Base
[3]; [19]
  MIC: 0.5 μg/mL Drug Base
[3]; [20]
  MIC: 0.063 μg/mL Drug Base
[3]; [21]
  MIC: 0.063 μg/mL Drug Base
[3]; [22]
  MIC: 0.25 μg/mL Drug Base
[3]; [23]
  MIC: 0.063 μg/mL Drug Base
[3]; [24]
  MIC: 0.063 μg/mL Drug Base
[3]; [25]
  MIC: 0.125 μg/mL Drug Base
[4]; [18]
  MIC: 1 μg/mL Drug Base
[4]; [19]
  MIC: 0.25 μg/mL Drug Base
[5]; [16]
  MIC: 1 μg/mL Drug Base
[5]; [17]
  MIC: 64 μg/mL Drug Base
[6]; [16]
  MIC: 1 μg/mL Drug Base
[6]; [17]
  MIC: 16 μg/mL Drug Base
[6]; MH broth, mucin 0%
  MIC: 0.5 μg/mL Drug Base
[7]; [18]
  MIC: 1 μg/mL Drug Base
[7]; [19]
  MIC: 0.25 μg/mL Drug Base
[7]; [20]
  MIC: 0.002 μg/mL Drug Base
[7]; [21]
  MIC: 0.004 μg/mL Drug Base
[7]; [22]
  MIC: 0.004 μg/mL Drug Base
[7]; [23]
  MIC: 0.002 μg/mL Drug Base
[7]; [24]
  MIC: 0.002 μg/mL Drug Base
[7]; [25]
  MIC: 0.002 μg/mL Drug Base
[8]; [20]
  MIC: 0.00006 μg/mL Drug Base
[8]; [21]
  MIC: 0.00006 μg/mL Drug Base
[8]; [22]
  MIC: 0.0002 μg/mL Drug Base
[8]; broth microdilution, MH broth, 5 × 10^5 CFU/mL, 16–20 h, mode (n = 3)
  MIC: <0.008 μg/mL Drug Base
[8]; [23]
  MIC: 0.00006 μg/mL Drug Base
[8]; [24]
  MIC: 0.001 μg/mL Drug Base
[8]; [25]
  MIC: 0.0002 μg/mL Drug Base
[9]; [18]
  MIC: 0.125 μg/mL Drug Base
[9]; [19]
  MIC: 0.125 μg/mL Drug Base
[9]; MH broth + porcine stomach (type II) mucin 0.2% w/v, resazurin read-out
  MIC: 1 μg/mL Drug Base
[9]; MH broth + porcine stomach (type II) mucin 2% w/v, resazurin read-out
  MIC: 2 μg/mL Drug Base
[9]; MH broth, mucin 0%, resazurin read-out
  MIC: 0.125 μg/mL Drug Base
[10]; [18]
  MIC: 0.125 μg/mL Drug Base
[10]; [19]
  MIC: 0.031 μg/mL Drug Base
[11]
  concentration required for growth inhibition (up to >48 h): ≥ 8 × MIC
[12]; 2 × MIC (colistin sulphate up to 2 × MIC), n = 15
  biofilm biomass compared to untreated control: no significant change
[12]; conjugates ≥MIC, colistin sulphate MIC, n = 15, p < 0.05
  biofilm roughness: significantly increased
[13]
  time at which 1 mg/mL in the OC was reached: 2.83 h
[14]
  reduction in viable bacterial counts after 4 h: < 3 log10 CFU/mL
[15]
  increase in MIC values when mucin was added to the bacterial culture medium: > 100 fold

From article PMC7696216, “Bi-Functional Alginate Oligosaccharide–Polymyxin Conjugates for Improved Treatment of Multidrug-Resistant Gram-Negative Bacterial Infections” (Pharmaceutics, 2020)
